Consider one molecule from publication PMC10269561, “Absence of Clinically Meaningful Drug-Drug Interactions with Rezafungin: Outcome of Investigations” (Microbiology Spectrum, 2023).

In data set [1] the test system is Caco-2 epithelial monolayers. Briefly: NC-049 membrane permeability in Caco-2 monolayers. The format is in vitro ADME. The following applies: Caco-2 epithelial monolayers expressing human P-gp and BCRP; both transport directions, in the absence and presence of inhibitors; study NC-049. The source says:
(§1) Microbiology Spectrum Supplementary materials
(§2) Table S 4Summary of initial in vitro assessments […]
(§3) whether rezafungin can induce CYP isoforms 1A2, 2B6, or 3A4. mRNA expression) of CYP1A2 and CYP2B6, and, in the case of […]
(§4) Abbreviations: ABC = ATP binding cassette; BCRP = breast cancer resistance protein; BSEP = bile salt export pump; CYP = cytochrome P450; MATE = multidrug and toxic compound extrusion; MDCK = Madin-Darby canine kidney; MDR = multidrug resistance protein; mRNA = messenger ribonucleic acid; OAT = organic anion transporter; OATP = organic anion transporter protein; OCT – organic cation transporter; OCTN = organic cation transporter novel; P-gp = P-glycoprotein; SLC = solute carrier.

Another data set addresses human P-gp (Homo sapiens, UniProt P08183). Briefly: NC-049 P-gp substrate potential in Caco-2 monolayers. The format is in vitro ADME. Conditions: with/without inhibitors.
From the text: as §1, §2, §3, §4

For another data set, the target named is human OATP1B1 (Homo sapiens, UniProt Q9Y6L6). Briefly: NC-152 transporter inhibition, OATP1B1. It is filed as in vitro ADME. Conditions: in vitro cell test system.
From the text: as §1, §2, §3, §4

The next data set addresses human OAT1 (Homo sapiens, UniProt Q4U2R8). Briefly: NC-152 transporter inhibition, OAT1. The following applies: in vitro cell test system. The format is in vitro ADME.
From the text: as §1, §2, §3, §4

The target of another data set is human OAT3 (Homo sapiens, UniProt Q8TCC7). Briefly: NC-152 transporter inhibition, OAT3. The format is in vitro ADME. Conditions: in vitro cell test system.
From the text: as §1, §2, §3, §4

For a further data set, the target named is human OCT2 (Homo sapiens, UniProt O15244). Briefly: NC-152 transporter inhibition, OCT2. The following applies: in vitro cell test system. The format is in vitro ADME.
From the text: as §1, §2, §3, §4

A further data set concerns the target human MATE1 (Homo sapiens, UniProt Q96FL8). Briefly: NC-152 transporter inhibition, MATE1. It is filed as in vitro ADME. From the text: (§5) Abbreviations: ABC = ATP binding cassette; BCRP = breast cancer resistance protein; BSEP = bile salt export pump; CYP = cytochrome P450; MATE =
(§6) multidrug and toxic compound extrusion; MDCK = Madin-Darby canine kidney; MDR = multidrug resistance protein; mRNA = messenger ribonucleic acid;
(§7) OAT = organic anion transporter; OATP = organic anion transporter protein; OCT – organic cation transporter; OCTN = organic cation transporter novel; P-gp =
(§8) P-glycoprotein; SLC = solute carrier.

A further data set deals with human MATE2-K (Homo sapiens, UniProt Q86VL8). The data set is described as follows: NC-152 transporter inhibition, MATE2-K. The format is in vitro ADME. Conditions: in vitro cell test system.
From the text: as §1, §2, §3, §4

The target in another data set is BCRP (Homo sapiens, UniProt Q9UNQ0). The data set is described as follows: NC-160 substrate interaction, BCRP. It is filed as in vitro ADME. Conditions: efflux (ABC) transporter.
From the text: as §1, §2, §3, §4

The target in another data set is T1, OCT1 (Homo sapiens, UniProt O15245).
T1 sequence (O15245 1-554): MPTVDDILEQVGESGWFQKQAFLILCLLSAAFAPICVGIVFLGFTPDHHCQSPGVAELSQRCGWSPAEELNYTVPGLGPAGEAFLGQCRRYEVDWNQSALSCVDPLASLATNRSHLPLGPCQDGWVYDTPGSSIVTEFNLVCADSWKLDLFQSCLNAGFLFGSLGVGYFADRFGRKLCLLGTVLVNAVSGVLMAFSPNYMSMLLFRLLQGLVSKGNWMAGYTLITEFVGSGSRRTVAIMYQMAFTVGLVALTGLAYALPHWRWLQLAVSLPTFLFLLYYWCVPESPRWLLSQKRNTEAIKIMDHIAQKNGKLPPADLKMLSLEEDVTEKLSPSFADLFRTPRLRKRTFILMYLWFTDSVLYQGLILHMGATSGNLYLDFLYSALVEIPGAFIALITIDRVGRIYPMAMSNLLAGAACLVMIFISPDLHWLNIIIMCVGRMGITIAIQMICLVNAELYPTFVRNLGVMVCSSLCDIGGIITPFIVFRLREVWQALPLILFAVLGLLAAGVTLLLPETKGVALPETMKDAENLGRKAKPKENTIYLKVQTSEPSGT
Briefly: NC-160 substrate interaction, OCT1. The format is in vitro ADME. The following applies: uptake SLC transporter.
From the text: as §1, §2, §3, §4

The target of another data set is OCTN2 (Homo sapiens, UniProt O76082). Briefly: NC-160 substrate interaction, OCTN2. It is filed as in vitro ADME. Conditions: uptake SLC transporter.
From the text: as §1, §2, §3, §4

The target of data set [2] is T2, CYP2C9 (Homo sapiens, UniProt P11712). Briefly: NC-012 CYP450 inhibition screening, recombinant CYP2C9. It is filed as in vitro ADME. Conditions: 10 μM, fluorogenic substrate, recombinant human CYP.
From the text: as §1, §2, §3, §4

The target in another data set is CYP2D6 (Homo sapiens, UniProt P10635). The data set is described as follows: NC-012 CYP450 inhibition screening, recombinant CYP2D6. The format is in vitro ADME. The following applies: 10 μM, fluorogenic substrate, recombinant human CYP.
From the text: as §1, §2, §3, §4

Data set [3] deals with T2, CYP2C9. The data set is described as follows: NC-153 time-dependent inhibition in human liver microsomes, CYP2C9. The following applies: 0.1 to 25 μM. It is filed as in vitro ADME.
From the text: as §1, §2, §3, §4
(In general: Liver microsomes are vesicles of endoplasmic reticulum, rich in cytochrome P450 enzymes.)

The nature of data set [4]: Precipitation in human liver microsome incubations (NC-153). It is filed as physicochemical.
From the text: as §1, §2, §3, §4

For data set [5] the following is noted: cited from earlier work. From the text: Rezafungin is a novel echinocandin currently in development for the treatment of candidemia and invasive candidiasis as well as for prophylaxis against fungal diseases caused by Candida, Aspergillus, and Pneumocystis species in people undergoing allogeneic blood and marrow transplantation ([33][–][35]). […] It has als ...

In another data set the target is T3, CYP2C8 (Homo sapiens, UniProt P10632).
T3 sequence (P10632 1-490): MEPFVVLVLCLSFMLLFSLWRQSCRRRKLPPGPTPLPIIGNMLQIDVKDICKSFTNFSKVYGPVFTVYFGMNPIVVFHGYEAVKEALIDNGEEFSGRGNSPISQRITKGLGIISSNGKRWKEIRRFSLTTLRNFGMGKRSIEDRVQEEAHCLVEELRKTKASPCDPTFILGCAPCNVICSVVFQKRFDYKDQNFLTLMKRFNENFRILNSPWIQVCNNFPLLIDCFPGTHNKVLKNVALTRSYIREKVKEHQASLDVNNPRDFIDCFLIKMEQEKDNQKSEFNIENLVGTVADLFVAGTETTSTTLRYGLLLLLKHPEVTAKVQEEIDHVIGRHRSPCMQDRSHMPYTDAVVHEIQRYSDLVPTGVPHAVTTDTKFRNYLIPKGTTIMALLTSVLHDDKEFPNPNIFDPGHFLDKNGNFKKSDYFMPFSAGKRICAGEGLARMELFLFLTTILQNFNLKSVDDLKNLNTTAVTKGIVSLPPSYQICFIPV
Briefly: NC-013 CYP2C8 inhibition in human liver microsomes. It is filed as in vitro ADME. Further details: in human liver microsomal preparations; from tissue; host or cells: human liver microsomes. Conditions: read-out: IC50, CYP2C8 (weak inhibition).
From the text: as §5, §6, §7, §8

SMILES strings stand for the structures. Numbered stars: 1 amine (or outer) side, 2 acyl side, 3 side chain; on linkers, the order of the positions; unused ones are H or OH. Bridge positions count the residues as written; N and C are the ends. Square brackets hold non-standard residues; d marks the D form. Peptide text beside a SMILES is read from it. * marks the point of attachment. Orn(4R-OH,5R-OCH2CH2NMe3+) = C[N+](C)(C)CCO[C@@H](N[*:3])[C@H](O)C[C@H](N[*:1])C(=O)[*:2]; pTerphenylCO(4''-OnC5H11) = CCCCCOc1ccc(-c2ccc(-c3ccc(C(=O)*)cc3)cc2)cc1; hTyr(3S-OH,4S-OH) = N[C@H](C(=O)O)[C@H](O)[C@@H](O)c1ccc(O)cc1; Pro(3S-OH,4S-Me) = C[C@H]1CN[C@H](C(=O)O)[C@H]1O; Hyp = O=C(O)[C@@H]1C[C@@H](O)CN1 Some results are limits rather than exact numbers.

T2 sequence (P11712 whole entry): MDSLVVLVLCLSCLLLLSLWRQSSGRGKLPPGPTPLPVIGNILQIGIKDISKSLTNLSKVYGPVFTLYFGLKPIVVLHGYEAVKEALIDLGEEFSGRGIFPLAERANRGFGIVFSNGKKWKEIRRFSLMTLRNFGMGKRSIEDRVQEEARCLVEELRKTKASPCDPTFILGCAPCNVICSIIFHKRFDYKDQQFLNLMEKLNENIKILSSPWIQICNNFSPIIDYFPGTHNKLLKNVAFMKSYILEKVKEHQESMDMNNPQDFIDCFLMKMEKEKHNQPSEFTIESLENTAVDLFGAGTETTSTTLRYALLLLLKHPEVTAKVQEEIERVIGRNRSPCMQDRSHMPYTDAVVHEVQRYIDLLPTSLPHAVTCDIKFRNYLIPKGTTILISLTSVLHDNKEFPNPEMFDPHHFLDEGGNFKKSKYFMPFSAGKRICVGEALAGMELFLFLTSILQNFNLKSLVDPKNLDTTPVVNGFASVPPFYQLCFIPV
human MATE1, sequence (Q96FL8 whole entry): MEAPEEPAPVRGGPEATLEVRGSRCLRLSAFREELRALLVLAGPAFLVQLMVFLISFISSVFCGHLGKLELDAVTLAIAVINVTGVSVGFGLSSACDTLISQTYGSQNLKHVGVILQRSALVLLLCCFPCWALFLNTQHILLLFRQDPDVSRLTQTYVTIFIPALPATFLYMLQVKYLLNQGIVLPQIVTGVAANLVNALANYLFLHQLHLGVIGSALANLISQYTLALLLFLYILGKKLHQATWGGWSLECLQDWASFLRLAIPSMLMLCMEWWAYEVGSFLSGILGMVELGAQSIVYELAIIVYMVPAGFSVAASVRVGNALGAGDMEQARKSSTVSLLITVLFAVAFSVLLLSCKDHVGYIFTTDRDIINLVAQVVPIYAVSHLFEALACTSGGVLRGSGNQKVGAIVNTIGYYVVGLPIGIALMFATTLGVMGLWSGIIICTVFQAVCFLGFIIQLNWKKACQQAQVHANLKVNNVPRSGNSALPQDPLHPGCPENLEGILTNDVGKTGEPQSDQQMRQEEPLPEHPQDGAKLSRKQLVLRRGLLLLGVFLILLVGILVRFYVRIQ
human OAT3, sequence (Q8TCC7 whole entry): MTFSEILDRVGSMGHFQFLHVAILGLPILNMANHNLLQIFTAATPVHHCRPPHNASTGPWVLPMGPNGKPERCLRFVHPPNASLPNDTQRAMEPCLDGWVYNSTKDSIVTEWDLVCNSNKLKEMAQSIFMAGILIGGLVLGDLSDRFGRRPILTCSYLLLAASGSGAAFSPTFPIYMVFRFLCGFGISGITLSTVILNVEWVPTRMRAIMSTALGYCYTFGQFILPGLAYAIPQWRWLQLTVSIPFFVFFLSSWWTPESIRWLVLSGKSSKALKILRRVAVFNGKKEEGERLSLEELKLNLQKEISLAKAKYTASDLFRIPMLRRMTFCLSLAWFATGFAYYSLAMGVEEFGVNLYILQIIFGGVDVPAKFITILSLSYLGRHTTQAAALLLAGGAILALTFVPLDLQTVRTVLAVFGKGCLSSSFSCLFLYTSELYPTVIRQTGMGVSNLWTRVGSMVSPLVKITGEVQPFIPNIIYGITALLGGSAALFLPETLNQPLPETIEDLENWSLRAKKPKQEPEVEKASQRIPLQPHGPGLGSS
human P-gp, sequence (P08183 whole entry): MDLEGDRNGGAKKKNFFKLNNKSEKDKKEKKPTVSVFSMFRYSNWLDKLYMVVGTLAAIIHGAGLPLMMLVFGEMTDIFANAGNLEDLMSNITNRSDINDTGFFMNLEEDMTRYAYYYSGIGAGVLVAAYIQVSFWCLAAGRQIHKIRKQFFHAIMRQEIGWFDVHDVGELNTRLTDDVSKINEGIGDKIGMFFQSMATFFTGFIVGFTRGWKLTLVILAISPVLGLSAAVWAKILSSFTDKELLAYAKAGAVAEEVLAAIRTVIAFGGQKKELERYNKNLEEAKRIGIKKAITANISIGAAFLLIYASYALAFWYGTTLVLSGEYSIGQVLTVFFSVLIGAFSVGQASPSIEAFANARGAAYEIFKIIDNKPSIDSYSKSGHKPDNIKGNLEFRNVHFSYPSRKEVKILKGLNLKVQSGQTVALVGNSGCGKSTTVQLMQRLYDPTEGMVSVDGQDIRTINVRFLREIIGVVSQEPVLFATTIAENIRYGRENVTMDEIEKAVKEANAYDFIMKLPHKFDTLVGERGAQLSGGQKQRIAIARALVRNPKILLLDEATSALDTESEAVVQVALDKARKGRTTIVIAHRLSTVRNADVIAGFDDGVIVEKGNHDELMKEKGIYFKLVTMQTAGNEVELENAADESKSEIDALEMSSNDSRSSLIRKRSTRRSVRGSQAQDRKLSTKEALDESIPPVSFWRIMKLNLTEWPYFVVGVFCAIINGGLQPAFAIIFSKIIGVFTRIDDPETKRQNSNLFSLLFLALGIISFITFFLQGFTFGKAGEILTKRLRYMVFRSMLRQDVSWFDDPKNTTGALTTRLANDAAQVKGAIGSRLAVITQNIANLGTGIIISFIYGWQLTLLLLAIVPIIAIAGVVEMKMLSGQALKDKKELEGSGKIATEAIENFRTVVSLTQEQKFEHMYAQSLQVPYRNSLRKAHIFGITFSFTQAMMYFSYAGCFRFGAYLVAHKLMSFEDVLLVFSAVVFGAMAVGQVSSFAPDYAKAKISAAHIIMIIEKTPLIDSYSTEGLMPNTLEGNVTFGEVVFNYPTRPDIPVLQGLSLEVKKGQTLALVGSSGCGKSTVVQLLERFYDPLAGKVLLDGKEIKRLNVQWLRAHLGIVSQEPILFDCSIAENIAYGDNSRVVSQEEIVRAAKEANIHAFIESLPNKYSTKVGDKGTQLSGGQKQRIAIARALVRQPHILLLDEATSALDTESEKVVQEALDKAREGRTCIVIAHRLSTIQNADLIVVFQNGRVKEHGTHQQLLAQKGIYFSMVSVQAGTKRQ
CYP2D6, sequence (P10635 whole entry): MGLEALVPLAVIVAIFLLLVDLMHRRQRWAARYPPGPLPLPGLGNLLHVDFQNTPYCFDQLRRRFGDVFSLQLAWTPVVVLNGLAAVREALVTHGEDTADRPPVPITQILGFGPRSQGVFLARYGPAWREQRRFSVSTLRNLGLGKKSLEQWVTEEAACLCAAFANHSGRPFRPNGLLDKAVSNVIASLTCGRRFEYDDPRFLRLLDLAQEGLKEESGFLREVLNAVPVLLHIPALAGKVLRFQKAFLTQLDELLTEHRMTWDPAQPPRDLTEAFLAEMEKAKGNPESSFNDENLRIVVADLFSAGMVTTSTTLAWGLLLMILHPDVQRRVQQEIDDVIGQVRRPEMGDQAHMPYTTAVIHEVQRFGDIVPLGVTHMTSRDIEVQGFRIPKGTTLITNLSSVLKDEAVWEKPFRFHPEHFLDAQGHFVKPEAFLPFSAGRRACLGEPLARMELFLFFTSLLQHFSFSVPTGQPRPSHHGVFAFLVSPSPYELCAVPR
human OAT1, sequence (Q4U2R8 whole entry): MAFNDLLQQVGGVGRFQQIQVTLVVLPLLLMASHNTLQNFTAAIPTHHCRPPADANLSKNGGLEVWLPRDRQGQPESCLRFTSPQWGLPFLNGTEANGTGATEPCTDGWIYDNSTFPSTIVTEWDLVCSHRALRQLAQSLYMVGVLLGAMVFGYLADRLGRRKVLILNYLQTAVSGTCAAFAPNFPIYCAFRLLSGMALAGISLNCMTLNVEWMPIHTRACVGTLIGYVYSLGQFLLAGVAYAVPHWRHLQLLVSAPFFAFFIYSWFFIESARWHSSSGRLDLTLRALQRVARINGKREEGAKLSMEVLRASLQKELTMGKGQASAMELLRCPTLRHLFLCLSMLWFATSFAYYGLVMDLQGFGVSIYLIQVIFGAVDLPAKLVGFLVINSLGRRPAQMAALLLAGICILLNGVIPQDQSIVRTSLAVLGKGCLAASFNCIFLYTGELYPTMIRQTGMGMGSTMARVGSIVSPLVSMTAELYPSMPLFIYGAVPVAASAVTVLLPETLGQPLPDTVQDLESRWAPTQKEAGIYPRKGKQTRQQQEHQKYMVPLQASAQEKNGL
human OATP1B1, sequence (Q9Y6L6 whole entry): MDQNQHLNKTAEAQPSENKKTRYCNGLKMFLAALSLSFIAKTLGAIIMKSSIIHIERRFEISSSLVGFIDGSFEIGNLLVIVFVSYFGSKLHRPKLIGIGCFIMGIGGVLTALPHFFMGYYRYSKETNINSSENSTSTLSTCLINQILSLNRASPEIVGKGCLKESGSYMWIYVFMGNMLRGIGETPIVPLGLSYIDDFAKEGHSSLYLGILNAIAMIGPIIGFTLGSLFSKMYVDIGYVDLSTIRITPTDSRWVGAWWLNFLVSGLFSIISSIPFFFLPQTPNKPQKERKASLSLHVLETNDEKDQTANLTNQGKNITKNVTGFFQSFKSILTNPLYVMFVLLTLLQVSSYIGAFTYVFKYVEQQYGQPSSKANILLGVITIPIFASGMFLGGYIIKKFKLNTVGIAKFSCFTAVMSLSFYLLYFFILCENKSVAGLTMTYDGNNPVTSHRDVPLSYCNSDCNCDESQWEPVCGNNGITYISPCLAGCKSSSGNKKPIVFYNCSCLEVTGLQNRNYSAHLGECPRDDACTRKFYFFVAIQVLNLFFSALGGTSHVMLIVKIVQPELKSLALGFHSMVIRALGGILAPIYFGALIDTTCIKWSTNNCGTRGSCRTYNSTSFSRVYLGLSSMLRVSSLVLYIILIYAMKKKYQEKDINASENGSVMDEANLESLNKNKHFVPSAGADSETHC

Turning to `CCCCCOc1ccc(-c2ccc(-c3ccc(C(=O)N[C@H]4C[C@@H](O)[C@@H](OCC[N+](C)(C)C)NC(=O)[C@@H]5[C@@H](O)[C@@H](C)CN5C(=O)[C@H]([C@@H](C)O)NC(=O)[C@H]([C@H](O)[C@@H](O)c5ccc(O)cc5)NC(=O)[C@@H]5C[C@@H](O)CN5C(=O)[C@H]([C@@H](C)O)NC4=O)cc3)cc2)cc1` [Rezafungin] ({pTerphenylCO(4''-OnC5H11)}-[Orn(4R-OH,5R-OCH2CH2NMe3+)]T[Hyp][hTyr(3S-OH,4S-OH)]T[Pro(3S-OH,4S-Me)]; lactam 1-C), the permeability coefficient in [1] is less than 2 nm/s. Besides, the “substrate of P-gp” value at human P-gp is reported as “not a substrate”. In addition, the “inhibitor of probe substrate transport mediated via OATP1B1” value against human OATP1B1 is “determined to be an inhibitor”. At human OAT1, the “inhibitor of probe substrate transport mediated via OAT1” value is on record as “determined to be an inhibitor”. For the same molecule, the “inhibitor of probe substrate transport mediated via OAT3” value at human OAT3 was “not”. The “inhibitor of probe substrate transport mediated via OCT2” value at human OCT2 is “determined to be an inhibitor”. Also, at human MATE1 (in vitro cell test system, NC-152), the “inhibitor of probe substrate transport mediated via MATE1” value is “determined to be an inhibitor”. The IC50 (usually the concentration at which inhibition is half-maximal) at human MATE1 (initial in vitro studies, read-out: IC50, MATE-1 uptake transporter (moderate inhibition)) is more than 6 µM; at CYP2C8, more than 25 µM. Also, the “inhibitor of probe substrate transport mediated via MATE2-K” value at human MATE2-K is “determined to be an inhibitor”. For the same molecule, at BCRP, the “substrate of BCRP” value was “not a substrate”. Moreover, the “substrate of OCT1” value at OCT1 was “not a substrate”. The “substrate of OCTN2” value on OCTN2 is reported as “not a substrate”. Moreover, the “inhibition of CYP2C9” value at CYP2C9 [2] is given as “Minimal inhibition”. The “inhibition of CYP2D6” value at CYP2D6 is reported as “Minimal inhibition”. For the same molecule, on CYP2C9 [3], the “time-dependent inhibitor of CYP2C9” value is on record as “not a time-dependent inhibitor”. In data set [4], the “concentration at which precipitation occurred” value was not below 25 µM. Further, the half-life entry in [5] is “around 130 h”. Besides, in data set [5] (incubated in phosphate-buffered saline, no evidence of reactive intermediate formation), the chemical stability result was “chemically stable”. In addition, in data set [5] (preclinical data), the “metabolic stability in hepatocytes” value is reported as “metabolically stable”. The “metabolic stability in liver microsomes” value in [5] (preclinical data) is on record as “metabolically stable”.
